From patent US20090298805A1, “TOPICAL PYRITHIONE COMPOSITIONS AND METHODS FOR TREATMENT OF NAIL FUNGUS” (priority 2008, published 2009)

Key:
[1] = test system: Trichophyton mentagrophytes; test: Microbiology efficacy test, formulations applied to paper disks, zone of inhibition; type: cell-based; conditions: T. mentagrophytes; 50 microliters on 1/2 inch paper disk, air dried; Potato Dextrose Agar; average results
Text: (§1) Each test formulation (50 microliters) was pipetted onto sterile ½ inch paper disks and was allowed to air dry. Spore suspensions of Trichophyton mentagrophytes and Trichophyton rubrum, were made using standard microbiological techniques. The resulting suspensions contained approximately 10,000,000 spores per milliliter. Sterile swabs were used to distribute the spore suspensions over the surface of Potato Dextrose Agar plates and one sample disk was placed in the center of each plate.

[2] = test system: Trichophyton rubrum; test: as above; type: cell-based; conditions: T. rubrum; 50 microliters on 1/2 inch paper disk, air dried; Potato Dextrose Agar; average results
Text: as §1

[3] = test system: T. mentagrophytes; test: Formulations applied to artificial nail (IMS VITRO-NAILS), zone of inhibition; type: cell-based, Trichophyton mentagrophytes
Text: Each test formulation (50 microliters) was pipetted onto sterile ½ inch paper disks and was allowed to air dry. Spore suspensions of Trichophyton mentagrophytes and Trichophyton rubrum, were made using standard microbiological techniques. The resulting suspensions contained approximately 10,000,000 spores per milliliter. Sterile swabs were used to distribute the spore suspensions over the surface of Potato Dextrose Agar plates and one sample disk was placed in the center of each plate. As an additional test, a synthetic nail substrate, IMS VITRO-NAILS, was used to simulate permeation of the active through a human nail. This material is reported to have the wetting properties, thickness and flexibility of human nails. This experiment was conducted in the same manner as first experiment above, except that the formulations were pipetted onto ¾-1 inch squares of VITRO-NAILS and either allowed to dry for 2 days before testing or place directly on the inoculated agar plates while wet.

Structure (SMILES): Cc1cc(C2CCCCC2)n(O)c(=O)c1 [Ciclopirox]
- Zone of Inhibition [1]: 16.0 mm
- Zone of Inhibition [2]: 19.0 mm
- Zone of Inhibition, Tested Dry ([3]; allowed to dry for 2 days before testing): 8.75 mm
- Zone of Inhibition, Tested Wet ([3]; placed directly on inoculated agar plates while wet): 9 mm
